Molecules are shown by their SMILES.

The nature of the data set: gradient 5% acetonitrile 3 min, to 50% in 2 min, to 85% in 15 min, held 3 min, 100 µL/min. To be noted: column: Zorbax Extend-C18 2.1 x 50 mm; eluents: water / acetonitrile, 0.1% formic acid. An outline of the steps: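 Each retention time is based on an adduct peak selected computationally and verified by manual inspection. Measurements used HPLC–quadrupole time-of-flight mass spectrometry in positive and negative ionization mode on mixtures of ~100 pure standards. Chromatography ran on a Zorbax Extend-C18 column (2.1 × 50 mm, 1.8 μm) at 100 μL/min with water and acetonitrile, each containing 0.1% formic acid, and dead and dwell volumes of 40 μL and 900 μL.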
Consider `Cc1ccc(CC(=O)Nc2cc(-c3nnc(C4CC4)o3)sc2C)cc1`, for which the RP-LC retention time was found to be 981 s.
The molecule `COc1ccccc1C(CNC(=O)c1cc(=O)c2c(C)cc(C)cc2o1)N(C)C` (stereo unspecified) registered an RP-LC retention time of 645 s.
The molecule `CCCC(=O)N1CCc2c([nH]c3ccc(OC)cc23)C1c1ccc(F)cc1` (stereo unspecified) had an RP-LC retention time of 1040 s.
Turning to `Cc1nc(-c2cccnc2)nc2c1CCC(=O)N2Cc1ccncc1`, the RP-LC retention time was 554 s.
`Cc1nc(-c2ccc(C)c(S(=O)(=O)NCCN(C)C)c2)cs1` displayed an RP-LC retention time of 612 s.
Turning to `CCOC(=O)c1[nH]c(C)c(CCC(=O)N2CCC(C(=O)NC3CCCC3)CC2)c1C`, the RP-LC retention time amounted to 729 s.
In turn, `Cc1ccc(CNC(=O)N2CC(Oc3ccc(-c4nc(C)no4)cc3)C2)cc1` yielded an RP-LC retention time of 861 s.
With `O=C(Nc1ccccc1)C1CC(=O)N(c2ccc3c(c2)CCN3C(=O)C2CC2)C1` (stereo unspecified) the figure was 743 s; with `Cc1ccc(-c2noc(C3CC(=O)N(c4ccc(C)c(F)c4)C3)n2)cc1` (stereo unspecified), 1110 s.
In the case of `Cc1noc(C)c1-c1ccc(S(=O)(=O)NC2CCC(C)CC2)cc1` (stereo unspecified), the RP-LC retention time stood at 1030 s.
With `c1cncc(-c2nc(-c3ccc(OC4CN(Cc5ccsc5)C4)cc3)no2)c1`, the RP-LC retention time came to 693 s.
With `Cc1ccc(-n2nc(C)c3sc(N4CCCC(C(=O)NC5CCCC5)C4)nc32)cc1` (stereo unspecified) the figure was 1150 s; with `COCCOc1ccc2c(n1)CCN(C(=O)NC1CCCCC1)C2`, 760 s.
For `O=C(Nc1cc(F)ccc1F)N1CCc2nc[nH]c2C1`, the RP-LC retention time was found to be 571 s.
On to `CC(Oc1cccc(Cl)c1)C(=O)NCC1CCOCC1` (stereo unspecified), for which the RP-LC retention time amounted to 779 s.
The same measure for `CCN1C(=O)C2CC3(CCN(C(=O)CC4CCCC4)CC3)CN2C1=O` (stereo unspecified): 741 s; for `Cc1ccc(NC(=O)CC2COc3ccccc3NC2=O)cc1F` (stereo unspecified): 769 s.
Molecule `CO[C@H]1CN(C2CCN(Cc3ccc(C)o3)CC2)[C@H]1c1ccncc1` yielded an RP-LC retention time of 588 s.
Turning to `CCOc1ccc2c(n1)CCN(C(=O)NCC(C)C)C2`, the RP-LC retention time turned out to be 740 s.
In turn, `CC(C)CNC(=O)c1cn(-c2ccc(S(=O)(=O)N3CCCC(C)C3)cn2)cn1` (stereo unspecified) returned an RP-LC retention time of 936 s.
For the molecule `Cc1cccc(C)c1NS(=O)(=O)c1cc(-c2cc(C(F)(F)F)on2)sc1C`, the RP-LC retention time amounted to 1230 s.
In turn, `Cc1cc(C)cc(NC(=O)N2CCCC(Cn3c(C4CC4)nc4cccnc43)C2)c1` (stereo unspecified) showed an RP-LC retention time of 731 s.
The same measure for `O=C(Cc1c(F)cccc1Cl)N1C[C@@H]2C[C@H]1C[C@@H]2NS(=O)(=O)c1ccccc1`: 852 s; for `CCNC(=O)[C@H]1O[C@@H](n2cnc3c(N)ncnc32)C(O)[C@H]1O` (stereo partly specified): 555 s.
`CCc1cccc(NC(=O)C2CCCN(S(=O)(=O)c3c[nH]c(C(=O)N4CCCC4)c3)C2)c1` (stereo unspecified): the RP-LC retention time was found to be 877 s.
The same measure for `CCCn1cc(CCNS(=O)(=O)c2ccc3c(c2)CCC3)c2cccnc21`: 938 s; for `COc1ccc(-c2nnc(SCc3cc(=O)n4ccsc4n3)o2)cc1OC`: 700 s.
The same measure for `COc1ccccc1NC(=O)C1CCN(S(=O)(=O)c2cc(C(=O)N3CCCC3)n(C)c2)CC1`: 758 s; for `CN(CC(=O)Nc1ccc2c(c1)OCO2)c1nc2c(F)cccc2s1`: 828 s.
Consider `CN(C)C(=O)c1cc2c(s1)CCC(C(=O)N1CCN(c3ccccc3)CC1)C2` (stereo unspecified), for which the RP-LC retention time stood at 735 s.
The molecule `CN(C)C(=O)OC1=C(c2ccccc2)Sc2ccccc2-n2cccc21` returned an RP-LC retention time of 1250 s.
`O=C1CCCCC(C(=O)N2CCCCC2)N1` (stereo unspecified) gave an RP-LC retention time of 641 s.
In turn, `COc1ccc(NC(=O)Cn2nc3cc(C)nc(-c4ccccc4)n3c2=O)cc1OC` registered an RP-LC retention time of 736 s.
Consider `COc1ccccc1/C=C/c1nn2c(-c3cccnc3)nnc2s1`, for which the RP-LC retention time turned out to be 872 s.
As to `O=C(Nc1ccc2nncn2c1)Nc1ccccc1F`, the RP-LC retention time worked out at 659 s.
In turn, `O=c1c(=O)n(-c2cccc(Cl)c2)ccn1Cc1nc(-c2ccccc2)no1` came in with an RP-LC retention time of 875 s.
With `COc1ccc(OC)c(NC2=NS(=O)(=O)C(c3ccc(F)cc3)=C2C)c1` the figure was 880 s.
In turn, `CCN1C(=O)c2c(C(=O)NCc3ccccc3Cl)ncn2CC1(C)C(=O)NC1CCCC1` (stereo unspecified) yielded an RP-LC retention time of 779 s.
The molecule `CCC(Oc1ccc(=O)n(-c2ccc(F)cc2)n1)C(=O)NCc1ccco1` (stereo unspecified) came in with an RP-LC retention time of 733 s.
With `CCc1nnc2ccc(NCC3CCCO3)nn12` (stereo unspecified) the figure was 646 s; with `COc1ccc(-c2cn3cccnc3n2)cc1NC(=O)c1c(-c2ccccc2Cl)noc1C`, 770 s.
On to `CCn1cc(CCNC(=O)Nc2c(C)cccc2C)c2cccnc21`, for which the RP-LC retention time turned out to be 705 s.
With `COc1ccc(CSc2nnc3c(S(=O)(=O)N4CCCCC4)cccn23)cc1` the figure was 861 s; with `O=c1ccc(-c2ccc(F)cc2)nn1CCc1nc(-c2cccc(Br)c2)no1`, 1100 s.
As for `O=C(Nc1ccccc1)c1cccn1Cc1noc(-c2ccccc2)n1`, the RP-LC retention time came out at 1020 s.
As for `CC(C)OCCCNC(=O)C1CCCCC(=O)N1` (stereo unspecified), the RP-LC retention time is 617 s.
Take `Cc1noc2nc(CCC(=O)NCCCN3CCc4ccccc4C3)nc(N3CCCCC3)c12`: the RP-LC retention time is 670 s.
Take `COc1ccc(-c2nnc(SCc3cc(=O)n4c(C)csc4n3)o2)cc1`: the RP-LC retention time was 831 s.
With `COc1ccc(OC)c(Nc2c(-c3nc(C)no3)cnc3nc(C)ccc23)c1`, the RP-LC retention time is 610 s.
In the case of `Cc1cc(C(=O)N2CCCCC2c2nncn2-c2ccccc2)nn1C` (stereo unspecified), the RP-LC retention time was 647 s.
With `CCOc1ccccc1NC(=O)C1CCCN(S(=O)(=O)c2ccc(OC)c(C)c2)C1` (stereo unspecified) the figure was 1080 s; with `CCOc1ccc(N2CC(c3nnc(NC(=O)c4ccc(Cl)cc4)o3)CC2=O)cc1` (stereo unspecified), 803 s; with `O=C1CC(NC(=O)c2cc(-c3ccc(F)cc3)n[nH]2)CN1` (stereo unspecified), 604 s.
Consider `Cc1nn(-c2ccc(N3CCOCC3)nn2)c(C)c1CCC(=O)N1CCN(c2ccccn2)CC1`, for which the RP-LC retention time stood at 578 s.
`Cc1ccc(CNC(=O)c2ccc3c(c2)CC(=O)N3C)cc1C` displayed an RP-LC retention time of 765 s.
The same measure for `Cc1nn(-c2ccc(F)cc2)c2nc(N3CCCC(C(=O)NC4CCCCC4)C3)sc12` (stereo unspecified): 1190 s; for `CCOC(=O)c1cc(C)nc2c1c(=O)n(Cc1cccc(C(F)(F)F)c1)c(=O)n2C`: 1150 s; for `Cn1cc2c3c(cccc31)CN(C(=O)c1ccc(Cl)cc1)CC2`: 988 s.
The molecule `COc1ccc(OCC(=O)NS(=O)(=O)c2ccccc2)cc1` came in with an RP-LC retention time of 745 s.
`Cc1nnc(-c2ccc3ccn(CC(=O)NCc4ccccc4)c3c2)o1`: the RP-LC retention time turned out to be 1010 s.
For the molecule `COC(=O)C(NC(=O)N1CC(Cn2c(C)cnc2C2CCOCC2)C1)C(C)C` (stereo unspecified), the RP-LC retention time turned out to be 600 s.

Values taken from the METLIN SMRT retention time set (Domingo-Almenara et al. 2019).
